Measurements from patent publication US10807951B2, “mTORC1 modulators” (THE REGENTS OF THE UNIVERSITY OF CALIFORNIA, priority 2017, dated 2020).
Entries after “also recorded” stand apart in the source; their conditions may differ.

How the values were obtained:
[1] = molecular target: T1, Lamtor (a.k.a. Ragulator) and Rag GTPase protein complexes (Homo sapiens, UniProt O43504); assay: Visual-IP of Rag GTPase binding to bead-bound Lamtor (Ragulator); details: for disruption of Rag GTPase-Lamtor interaction (Visual IP): in vitro, GFP-RagB on RFP-Ragulator beads, 50 μM compound in small-scale screens
T1 construct: RFP (on the Ragulator complex); GST (large-scale screen); on the Ragulator complex; made in house; host or cells: HEK293T (small-scale screen), HEK293F (large-scale screen), transient transfection
Excerpt: To assay for mTORC1-inhibiting compounds, we in vitro-reconstituted the interaction between the Lamtor (a.k.a. Ragulator) and Rag GTPase protein complexes, which are essential for amino acid-driven mTORC1 recruitment (and thus activation) to the lysosome (24, 30, 36, 37). We sequentially coated agarose beads with RFP-tagged Ragulator and with GFP-tagged Rag GTPases, resulting in Rag binding to the beads via their interaction with Lamtor. This method, which we call ‘Visual co-immunoprecipitation’ (Visual-IP) is essentially a binding reaction at equilibrium, in which the interaction between the two binding partners can be easily scored as color overlap between the bead-bound, red-tagged Lamtor and the soluble, green-fluorescent Rag GTPases. Interaction between the two proteins results in red-green color overlap (‘yellow beads’), whereas when the interaction is disrupted, partial or complete dispersion of the green signal in the surrounding buffer is observed (‘red beads’) (FIG. 1A and FIG. 1B). This assay could easily be scaled up and implemented in 384-well plates, which were imaged with the aid of an automated fluorescence microscope (FIG. 1C).
HEK293T cells were plated on 15 cm plates at 10 million cells per plate. 24 hours later, the cells were transfected using 500 μL OptiMEM transfection media, 60 μL polyethyleneimine (PEI, Sigma) and 10 μg total DNA. The transfection mix was incubated for 15 minutes and then added directly to the cell media. 48 hours later, the media was removed, and the cells were washed three times with PBS. The cells were scraped from the plate and collected in 10 mL PBS. The samples were centrifuged for 5 minutes at 1500 g at 4° C. The cell pellets were then resuspended in 1 mL Triton lysis buffer (1% Triton X-100, 130 mM NaCl, 2 mM EGTA, 2.5 mM MgCl2, 25 mM HEPES, pH 7.4, 10% glycerol, protease inhibitor (Pierce)), and allowed to rotate at 4° C. for 20 minutes. The samples were then centrifuged at 13000 g for 2 minutes, and the supernatant was separated for immunoprecipitation. 50 μL of washed anti-FLAG affinity beads (Sigma) were added to the supernatant and the sample was rotated at 4° C. for 2 hours. After immunoprecipitation, the samples were washed twice in Triton lysis buffer, once in high salt (500 mM NaCl) lyso sucrose buffer, and once in normal salt lyso sucrose buffer (250 mM sucrose, 10 mM KCl, 2 mM EGTA, 2.5 mM MgCl2, 25 mM HEPES, pH 7.4, 10% glycerol, protease inhibitor (Pierce)). Each wash consisted of rotating with the wash buffer for 5 minutes at 4° C. and subsequent centrifugation at 2000 g for 1 minute. For elution off FLAG beads, 3×-FLAG peptide in Phosphate Buffered Saline (PBS) was added to the sample, [RL2] and the sample was allowed to rotate overnight at 4° C. […]

mTORC1 = mTORC1 signaling in HeLa cells by immunoblotting; format: cell-based; details: for mTORC1-mediated signaling (p-ULK1, pS6K1, p-4E-BP1): amino acid stimulation
Protocol: HeLa cells were subjected to starvation/refeeding protocols as described in the previous section, then lysed in ice-cold lysis buffer (150 mM NaCl, 20 mM HEPES [pH 7.4], 2 mM EDTA, 0.3% CHAPS or 1% Triton X-100, and one tablet of EDTA-free protease inhibitors per 50 ml). Cell lysates were cleared by centrifugation at 13,000 rpm for 10 minutes in a microfuge. Samples were normalized to a total concentration of 1 mg/mL protein and prepared using sample buffer at 1×, then boiled for 5 minutes at 95 C. Samples were loaded onto 10% or 12% SDS-Page gels, and analyzed by immunoblotting.
Several of these compounds were also directly tested for their ability to inhibit mTORC1 signaling in immunoblotting-based assays. […] Thus, we pursued CC 1-44 for further characterization.

Hela whole cell proteome = assay: Gel-based ABPP of IA-alkyne cysteine reactivity in Hela whole cell proteome
Excerpt: Thus, we performed medicinal chemistry to optimize the potency and selectivity of our initial hits by addition of further bulk to the core YP 1-44 scaffold (FIGS. 9A-9C; FIG. 5B). We initially screened these compounds against both LAMTOR5 and the Ragulator complex using gel-based ABPP methods competing the binding of these YP 1-44 analogs against IA-alkyne labeling of these proteins (FIG. 5C, FIG. 9). We also tested these compounds against Hela cell whole proteome cysteine reactivity to get initial read-outs of proteome-wide selectivity (FIGS. 9A-9C, FIG. 5D).

mTOR = assay: Immunofluorescence of mTOR and LAMP2 in HEK-293A cells; format: cell-based; details: 2 h
Protocol: FIGS. 6A-6D. CC 1-44 inhibits mTORC1 signaling and activates autophagy. (FIG. 6A) Visual IP experiment monitoring binding of GFP-RagB to RFP-tagged, bead-bound Lamtor complex. […] (FIG. 6B) Immunofluorescence for endogenous RagA and LAMP2 in HEK-293A cells treated with DMSO, YP 1-44 or CC 1-44 for 2 h. […] (FIG. 6C) Immunofluorescence for endogenous mTOR and LAMP2 in HEK-293A cells treated with DMSO or CC 1-44 for 2 h. […] (FIG. 6D) Immunoblotting for autophagic markers LC3b and p62 from HEK-293A cells treated with DMSO (lane 1) or CC 1-44 (lane 3) for 2 h.
Next, we investigated the mechanism of mTORC1 inhibition by CC-1-44 using visual IP and immunofluorescence. […] Indeed, when we visualized RagA and RagC localization in CC 1-44-treated cells, their localization to LAMP2-positive lysosomes was increased, not decreased as for YP 1-44 (FIG. 6B). This observation pointed to a different mechanism for mTORC1 inactivation by CC 1-44. Rather than disrupting the integrity of the LAMTOR-Rag assembly, CC 1-44 prevents its activation, causing it to strongly accumulate at the lysosome in a conformation that is unable to bind to mTORC1.

| displacement of Rag and Lamtor interactions ([1]; 10 μM, dose-responsive) [%] | disruption of Rag GTPase-Lamtor interaction (Visual IP) ([1]; listed as YP1-44) | Structure (SMILES) | disruption of Rag GTPase-Lamtor interaction (Visual IP) [1] | mTORC1-mediated signaling (p-ULK1, pS6K1, p-4E-BP1) (mTORC1) | mTORC1-mediated signaling (p-ULK1, pS6K1, p-4E-BP1) (mTORC1; listed as YP1-44) | proteome-wide selectivity (displacement of IA-alkyne cysteine reactivity) (Hela whole cell proteome) | mTOR/mTORC1 localization to lysosomes (mTOR) | phosphorylation of canonical mTORC1 substrates S6K1, 4E-BP1 and ULK1 (mTORC1; 10 μM) | potency of mTORC1 blockade relative to YP 1-44 (mTORC1; immunoblotting) |
| --- | --- | --- | --- | --- | --- | --- | --- | --- | --- |
| ~50 | dispersion of the GFP-RagB signal | C=CC(=O)n1ccc2ccccc21 [YP 1-44] | causes RagB dissociation from Lamtor; also recorded: disrupted the interaction | completely inhibited | suppresses mTORC1 activation by amino acids | non-selectivity at 100 μM and above; also recorded: not sufficiently selective at higher concentrations (>100 μM) | completely dispersed from lysosomes | – | – |
| – | – | C=CC(=O)N1CCc2c(OCc3cc(C(F)(F)F)cc(C(F)(F)F)c3)cccc21 [CC 1-44] | does not; also recorded: did not break the LAMTOR-Rag interaction in vitro | – | – | selectivity at up to 1 mM; also recorded: apparent selectivity up to 1 mM | induces dissociation of mTOR from lysosomes; also recorded: completely dispersed from lysosomes | completely inhibited | potency comparable to YP 1-44 |
